A short description of data set [1]: Solubility improvement of NZ-105 by pulverizing or by formulating other polymers. The format is physicochemical. To be noted: pulverizing crystals. The text has this:
This entailed larger size tablets. […] This also entailed larger size tablets.

For data set [2] the following is noted: background; cited from earlier work.
For data set [3] the following is noted: background; cited from earlier work. The source holds these as a separate data set.

Counter-ions that a name gives are not always drawn.

For the compound `CC1=C(C(=O)OCCN(Cc2ccccc2)c2ccccc2)C(c2cccc([N+](=O)[O-])c2)C(P2(=O)OCC(C)(C)CO2)=C(C)N1` (stereo not drawn) [NZ-105, 5-(5,5-dimethyl-1,3,2-dioxaphosphorinane-2-yl)-1,4-dihydro-2,6-dimethyl-4-(3-nitrophenyl)-3-pyridine carboxylic acid 2-(phenyl(phenylmethyl)amino) ethyl ester P-oxide hydrochlorideethanol], the “Improvement in solubility (in words)” value in data set [1] is “did not result in an improvement in the solubility of NZ-105 of a degree to promote its bioavailability”.

Consider `COC(=O)C1=C(C)NC(C)=C(C(=O)OCCN(C)Cc2ccccc2)C1c1cccc([N+](=O)[O-])c1` (stereo not drawn) [Nicardipine], for which the “Absorption through gastrointestinal tracts (in words)” value in data set [2] was “can not be absorbed through gastrointestinal tracts in a sufficient amount”. Moreover, in data set [3], the “Solubility in water (in words)” value is reported as “very poor solubility in water”.

The record behind these values is US4983593A, “Pharmaceutical composition of dihydropyridine compound” (priority 1988, dated 1991).
